Experimental data published in patent publication US20200247815A1, “PYRAZOLYL-CONTAINING TRICYCLIC DERIVATIVE, PREPARATION METHOD THEREFOR AND USE THEREOF” (Jiangsu Hansoh Pharmaceutical Group Co., Ltd., priority 2017, published 2020).

Legend:
ERK-1 kinase = target: T1, ERK-1 kinase (Homo sapiens, UniProt P27361); experiment: Inhibition of ERK-1 kinase activity (LANCE Ultra TR-FRET); type: biochemical; conditions: ERK1 enzyme 0.4 nM, ATP 38.15 μM
T1 construct: purchased Invitrogen PV3311
Method in brief: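 Reactions contained 0.4 nM ERK1, 0.5 μM Ulight-MBP peptide and 38.15 μM ATP in pH 7.4 Hepes/MgCl2 buffer with 4% DMSO and ran 60 minutes at room temperature. Detection used Eu-anti-p-MBP with a 665/615 nm TR-FRET ratio, normalised to DMSO and no-enzyme controls. Final concentrations were 100 nM to 0.005 nM, and IC50 came from a 4-parameter fit.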

ERK-2 kinase = target: T2, ERK-2 kinase (Homo sapiens, UniProt P28482); experiment: Inhibition of ERK-2 kinase activity (LANCE Ultra TR-FRET); type: biochemical; conditions: ERK-2 enzyme 0.08 nM, ATP 38.15 μM
T2 construct: purchased Invitrogen PV3313
T2 sequence (P28482 whole entry): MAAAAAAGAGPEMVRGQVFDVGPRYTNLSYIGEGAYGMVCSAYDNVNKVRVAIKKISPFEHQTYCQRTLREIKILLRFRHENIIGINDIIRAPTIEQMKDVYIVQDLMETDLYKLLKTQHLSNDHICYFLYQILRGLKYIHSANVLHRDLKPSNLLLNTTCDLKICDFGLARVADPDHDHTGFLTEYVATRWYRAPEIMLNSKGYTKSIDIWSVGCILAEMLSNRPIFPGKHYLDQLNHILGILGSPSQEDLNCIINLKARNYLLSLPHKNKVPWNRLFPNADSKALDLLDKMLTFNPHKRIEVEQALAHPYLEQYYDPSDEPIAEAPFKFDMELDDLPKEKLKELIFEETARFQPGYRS
Method in brief: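 Recombinant ERK-2 (0.08 nM) with ULight-MBP peptide (0.5 μM) and ATP (38.15 μM) in Hepes pH 7.4 buffer, compound 100 nM to 0.005 nM final, 4% DMSO, 60 min at room temperature. Eu-anti-p-MBP TR-FRET (665/615 nm) read after EDTA stop; % inhibition versus DMSO and no-enzyme controls fitted 4-parameter for Abs_IC50.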

[1] = Pharmacokinetics assay in mice (oral, plasma); type: in vivo, Balb/c Mouse
Method: Balb/c Mouse was used as the test animal. The pharmacokinetic behavior of compounds of Example 1, 2 and 7 administrated orally was studied in mice (plasma).
170 g of PEG400 and 20 g of Solutol HS-15 were added to a 250 mL glass flask, and then 10 mL of NMP was added. The solution was mixed well by ultrasound for 10 minutes to obtain a clear solution.
11.2 mg of the compound of Example 1, 10.8 mg of the compound of Example 2 and 9.8 mg of the compound of Example 7 were weighted to a 4 mL glass flasks respectively, […], 2.160 mL and […] of the above solution were treated by ultrasound for 10 minutes to obtain a colorless clear solution with a concentration of 5 mg/mL.
After fasting overnight, the male Balb/c mice were administrated with the compounds (PO), the dose was 50 mg/kg, and the administration volume was 10 mL/kg.
Blood was taken before administration and at 0.25, 0.5, 1, 2, 4, 6, 8 and 24 hours after administration. The blood samples were stored in EDTA-2K tubes, and centrifuged for 6 minutes to separate the blood plasma. The plasma samples were stored at −80° C.

[2] = system: human pancreatic cancer cell MiaPaca 2 xenograft (CDX) model; experiment: Tumor inhibition experiment in MiaPaca 2 xenograft model; type: in vivo, BALB/c nude mice
Method: BALB/c nude mice were used as test animals. In vivo pharmacodynamic test was carried out in human pancreatic cancer cell MiaPaca 2 xenograft (CDX) model to evaluate the antitumor effect of the test compound.
MiaPaca 2 cells were obtained from the cell bank. After recovery, the cells were added to a DMEM medium (containing 10% FBS, 1% Glu and 1% P/S), and incubated in the CO2 incubator (the incubator temperature was 37° C., and the CO2 concentration was 5%). The cells were subjected to passage after spreading 80-90% of the bottom of the culture flask. After passage, the cells were incubated in the CO2 incubator. This process was repeated until the number of cells met the required by in vivo pharmacological inoculation. Cells in log phase were collected, and counted by the automatic cell counter. The cells were re-suspended with PBS and Matrigel (1:1 by volume) based on the counting results to obtain a cell suspension (cell density: […]), which was placed in an ice box.
Female BALB/c nude mice (6-8 weeks old, body weight: 18-22 grams) were used as test animals. The mice were maintained in individually ventilated cages (5 mice per cage) in a special pathogen-free environment. All cages, padding and water were disinfected before use. All animals had free access to standard certified commercial laboratory diets. The nude mice were labeled with disposable ear tags before the experiment. The skin of the inoculated area was sterilized with 75% medical alcohol before inoculation. Each mouse was subcutaneously inoculated with 0.1 ml (containing 8*10^6 cells) of MiaPaca 2 tumor cells on the right back. Administration was started when the average tumor volume reached 100-200 mm^3. The test compound was administrated intragastrically daily. The tumor volume (mm^3) was measured with vernier caliper twice a week. Calculation formula: V=0.5*D*d*d, wherein D and d refer to the major and minor diameter of the tumor, respectively. The anti-tumor efficacy was determined by dividing the average tumor increase volume of compound-treated animals by the average tumor increase volume of untreated animals. Calculation formula of tumor inhibition rate: TGI (%)=1−[(Vt−V0)administration group/(Vt−V0)solvent control group]*100%. All animals were euthanized after the experiment.

[3] = Solubility (statement, no method); type: physicochemical
[4] = conventional solvents, background statement; cited from earlier work
[5] = mouse, male Balb/c mice, PO 50 mg/kg, plasma
[6] = 100 mg/kg QD × 3 w, intragastric, Day 21

T1 sequence (P27361 whole entry): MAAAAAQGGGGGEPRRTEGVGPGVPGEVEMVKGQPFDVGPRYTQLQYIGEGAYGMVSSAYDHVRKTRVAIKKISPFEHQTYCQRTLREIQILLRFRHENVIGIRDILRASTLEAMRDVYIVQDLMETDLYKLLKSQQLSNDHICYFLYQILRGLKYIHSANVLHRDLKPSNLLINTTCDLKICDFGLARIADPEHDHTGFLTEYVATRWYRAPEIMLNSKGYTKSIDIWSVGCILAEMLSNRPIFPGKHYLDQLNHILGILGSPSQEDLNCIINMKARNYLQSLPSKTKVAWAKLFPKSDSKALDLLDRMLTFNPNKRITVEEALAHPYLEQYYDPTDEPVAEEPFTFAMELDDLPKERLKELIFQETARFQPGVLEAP

## C[C@@H](NC(=O)c1nc2cc3c(-c4ccncc4)n[nH]c3cc2[nH]1)c1ccc(F)cc1 [Example 7, (R)—N-(1-(4-fluorophenyl)ethyl)-3-(pyridin-4-yl)-1,7-dihydroimidazo[4,5-f]indazole-6-carboxamide]
ERK-1 kinase
  IC50: 0.41 nM
ERK-2 kinase
  IC50: 0.18 nM
[1]; dose of 50 mg/kg, oral
  Exposure in mouse plasma: good exposure
[1]; [5]
  Cmax: 8260 ng/mL
  MRT: 2.33 h
  Tmax: 1 h
  half-life: 0.83 h
[1]; mouse, male Balb/c mice, PO 50 mg/kg, plasma, read-out: AUC0-24
  AUC(0-t): 27300 ng·h/mL
[2]; 100 mg/kg QD × 3 w, intragastric, Day 0
  Tumor volume (Mean ± SD) Day 0: 156 ± 33 mm^3
[2]; [6]
  TGI Day 21: 58.3%
  Tumor volume (Mean ± SD) Day 21: 426 ± 205 mm^3
  ΔT/ΔC Day 21: 41.63%
[2]; 100 mg/kg QD, continuous oral administration for 21 days
  Inhibition of growth of xenograft: significantly inhibit the growth
[3]
  Solubility compared with ERK compounds of the prior art: higher solubility

## O=C1Nc2cc3[nH]nc(-c4ccncc4)c3cc2CN1Cc1ccccc1 [KO-947]
[4]
  Solubility: poor solubility
